Laboratory results reported in patent publication US3953497A, “2,4,6-Triiodo-5-methoxyacetamido-N-methylisophthalamic acid and salts, acyl halides and esters thereof” (Mallinckrodt, Inc., priority 1974, dated 1976).

Assays:
rats = details: Priewe et al., DAS 1,129,260/1962; cited from earlier work
dogs = details: Pfeiffer et al., DOS 2,118,219/1972; cited from earlier work
man = details: Pfeiffer et al., DOS 2,118,219/1972; cited from earlier work
[1] = Solubility of the sodium salt in water; type: physicochemical
Protocol: 2,4,6-Triiodo-5-methoxyacetamido-N-methylisophthalamic acid (6.005 g.) was dissolved in water with NaOH solution at pH 7.4 to form a supersaturated solution (7.0 ml.). When the solution was allowed to stand at room temperature overnight, crystallization occurred. The crystals were collected and dried.
The sodium salt (2.71 g.) was then dissolved in water to form an 82% w/v solution (3.3 ml.). After the solution was allowed to stand at 24° overnight some crystallization occurred. The solution was stirred and the supernatant was taken (by centrifugation) for specific gravity measurement (sp. gr. 1.43) and for water determination (found, […] by Karl Fischer method). The solubility of the sodium salt in water was therefore determined to be about 70% w/v at 24°.

[2] = system: Swiss Albino mice (Charles River); assay: Acute Intravenous Toxicity Studies in Mice (LD50); type: in vivo; details: lateral tail vein, 1 ml/min, solutions containing 28.27% of iodine, seven day observation
Protocol: (§1) The techniques utilized are outlined below.
I. Acute Intravenous Toxicity Studies in Mice
Swiss Albino mice (Charles River) were dosed in the lateral tail vein with solutions of the iodinated compound containing 28.27% of iodine, injected at the rate of 1 ml/min. […] The LD50 values were calculated by the method of Litchfield and Wilcoxon (J. of Pharmac. and Exptl. Therap. 96:99-113, 1949).

in vivo [3] = details: mouse, intracerebral, fixed volumes of various concentrations, seven day observation, meglumine salt, read-out: LD50 of Meglumine Salt, Intracerebral (Mice)
Excerpt: as §1
II. Intracerebral Toxicity in Mice
Swiss Albino mice (Charles River) were used. […] The animals were observed immediately after injections and daily throughout a seven day observation period.

in vivo [4] = details: rat, intracisternal, two day observation, meglumine salt, read-out: LD50 of Meglumine Salt, Intracisternal (Rats)
Excerpt: as §1
III. Intracisternal Toxicity in Rats
Sprague Dawley (Carworth) rats were used. […] After dosing, the animals were housed individually, and observed for immediate reactions and periodically for a two day observation period.

## COCC(=O)Nc1c(I)c(NC(C)=O)c(I)c(C(=O)O)c1I [3-acetamido-5-methoxyacetamido-2,4,6-triiodobenzoic acid]
rats
  LD50 (i.v. in rats): 16 g/kg
dogs
  circulatory disturbances in dogs: strong circulatory disturbances
man
  circulatory disturbances in man: strong circulatory disturbances

## CNC(=O)c1c(I)c(NC(=O)COC)c(I)c(C(=O)[O-])c1I.[Na+]
[1]; 24°, sodium salt, from specific gravity and Karl Fischer water of supernatant
  solubility thermodynamic: ~700 mg/mL
[1]; sodium salt in water
  temperature dependence of solubility: highly temperature dependent

## CNC(=O)c1c(I)c(NC(=O)COC)c(I)c(C(=O)O)c1I [meglumine 2,4,6-triiodo-5-methoxyacetamido-N-methylisophthalamate]
[2]
  LD50 of Meglumine Salt, I.V. (Mice): 6700 mg. contained iodine/kg. anima
In vivo [3]
  LD50 at 168 h: 700 mg/kg
In vivo [4]
  LD50 at 48 h: 40 mg/kg

## CNC(=O)c1c(I)c(NC(C)=O)c(I)c(C(=O)O)c1I [Iothalamic Acid, 5-acetamido-2,4,6-triiodo-N-methylisophthalamic acid, reference compound]
[2]
  LD50 of Meglumine Salt, I.V. (Mice): 5742 mg. contained iodine/kg. anima
